Experiments:
[1] = system: 1,25-(OH)2D3 receptor site; conditions: Ishizuka et al., Steroids 1981, 1982; cited from earlier work
PC-3 = assay: Inhibition of cell proliferation, PC-3; type: cell-based, human; conditions: 10^−11 M to 10^−7 M, 6-7 days
Description: (§1) The cell lines, LNCAP and PC-3, which are derived from human prostate adenocarcinoma, are seeded in six-well tissue culture plates at a density of about 50,000 cells/plate. After the cells have attached and stabilized, about 2-3 days, the medium is replenished with medium containing vehicle or the active vitamin D analogue 1α,24-(OH)2D2, at concentrations from 10^−11 M to 10^−7 M. Medium containing test analogue or vehicle is replaced every three days. After 6-7 days, the medium is removed, the cells are rinsed, precipitated with cold 5% trichloroacetic acid, and washed with cold ethanol. The cells are solubilized with 0.2 N sodium hydroxide, and the amount of DNA determined by standard procedures.

LNCAP [2] = assay: Inhibition of cell proliferation, LNCAP; type: cell-based, human; conditions: 10^−11 M to 10^−7 M, 6-7 days
Description: as §1

LNCAP [3] = assay: Cell differentiation, PSA production in LNCaP; type: cell-based, human; conditions: 10^−11 M to 10^−7 M, 6-7 days
Description: Using the techniques of Skowronski et al., 132 Endocrinology (1993) 1952-1960 and 136 Endocrinology (1995) 20-26, both of which are incorporated herein by reference, cells of the cell line, LNCaP, which is derived from a human metastatic prostate adenocarcinoma and known to express PSA, are seeded in six-well tissue culture plates at a density of about 50,000 cells/plate. After the cells have attached and stabilized, about 2-3 days, the medium is replenished with medium containing vehicle or the active vitamin D analogue, 1α,24-(OH)2D2, at concentrations from 10^−11 M to 10^−7 M. After 6-7 days, medium is removed and stored at −20° C. for prostate specific antigen (PSA) analysis.
The cells from parallel cultures are rinsed, precipitated, and the amount of DNA determined by standard procedures. PSA is measured by standard known methods.

[4] = system: advanced androgen-independent prostate cancer; assay: Treatment of advanced androgen-independent prostate cancer, open-labeled study; type: in vivo, human; conditions: for progression of metastatic disease: after one and two years
Description: Patients with advanced androgen-independent prostate cancer participate in an open- labeled study of 1α,24-(OH)2D2. […] On admission to the study, patients begin a course of therapy with oral 1α,24-(OH)2D2 lasting 26 weeks, while discontinuing any previous use of calcium supplements, vitamin D supplements, and vitamin D hormone replacement therapies. During treatment, the patients are monitored at regular intervals for: (1) hypercalcemia, hyperphosphatemia, hypercalciuria, hyperphosphaturia and other toxicity; (2) evidence of changes in the progression of metastatic disease; and (3) compliance with the prescribed test drug dosage.
The study is conducted in two phases. During the first phase, the maximal tolerated dosage (MTD) of daily oral 1α,24-(OH)2D2 is determined by administering progressively higher dosages to successive groups of patients. All doses are administered in the morning before breakfast. […] Subsequent groups of patients are treated with 50.0, 75.0 and 100.0 μg/day.
During the second phase, patients are treated with 1α,24-(OH)2D2 for 24 months at 0.5 and 1.0 times the MTD.

Row | SMILES | binding to the 1,25-(OH)2D3 receptor site relative to 1,25-(OH)2D3 [1] | cell number (amount of DNA) versus control cultures (PC-3) | cell number (amount of DNA) versus control cultures (LNCAP [2]) | PSA expressed as mass of PSA/cell versus control cultures (LNCAP [3]) | bone pain associated with metastatic disease ([4]; MTD for at least six months) | maximum levels of circulating 1α,24-(OH)2D2 ([4]; at the highest dosages) | circulating levels of 1α,25-(OH)2D3 ([4]; during treatment) | progression of metastatic disease ([4]; higher dosage (1.0 times the MTD)) | levels of circulating 1α,24-(OH)2D2 versus dosage ([4]; in vivo) | serum and urine calcium ([4]; in vivo) | progression of metastatic disease ([4]; lower dosage (0.5 times the MTD))
1 | C=C1/C(=C\C=C2/CCC[C@]3(C)[C@@H]([C@H](C)CC[C@@H](O)C(C)C)CC[C@@H]23)C[C@@H](O)C[C@@H]1O [1α,24(R)-(OH)2D3, 1α,24(R)-dihydroxyvitamin D3] | more tightly than does 1,25-(OH)2D3 itself | – | – | – | – | – | – | – | – | – | –
2 | C=C1/C(=C\C=C2/CCC[C@]3(C)[C@@H]([C@H](C)/C=C/C(C)(O)C(C)C)CC[C@@H]23)C[C@@H](O)C[C@@H]1O (relative stereo) [1α,24-(OH)2D2, 5,6-cis-1α,24-dihydroxyvitamin D2] | – | significantly fewer cells than the control cultures | significantly fewer cells than the control cultures | significantly more PSA than control cultures | significantly diminished | above 100 pg/mL | suppressed, often to undetectable levels | stable disease and partial or complete remission in many patients | increase proportionately with the dosage administered | elevated in a dose responsive manner | stable disease or partial remission in many patients

Reference: US6538037B2, “Methods for preparation and use of 1α,24(S)-dihydroxyvitamin D2” (Bone Care International, Inc., priority 1991, dated 2003)
